This note sets out measurements from ChEMBL document CHEMBL1201862, “PubChem BioAssay data set” (2004).

Among the test systems are OVCAR-8; OVCAR-5; Malme-3M; U-251; CAKI-1; NCI/ADR-RES; ACHN; NCI-H23; OVCAR-3; MOLT-4; HCT-116; SK-MEL-2; IGROV-1; 786-0; SNB-75; SW-620; UACC-257; MCF7; NCI-H460; NCI-H522.
Holding throughout (test): NCI anticancer screen, dose series, 48 h

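Five concentrations, 48 hours, 96-well plates. The concentration for 50% growth inhibition is given as GI50.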 Activity calls are given as the source filed them. No stated cut-off is given here; in the data, active = GI50 up to about 1.1 µM and inactive = higher.

As for `CC(C)(C)OC(=O)NC(Cc1ccccc1)C(=O)OCN1C(=O)C2C3C=CC(C2C1=O)C1C2C(=O)N(COC(=O)C(Cc4ccccc4)NC(=O)OC(C)(C)C)C(=O)C2C31` (stereo not given), the GI50 in the experiment with OVCAR-8 is 30.1 µM (inactive); with OVCAR-5, 53.3 µM (inactive); in the experiment on Malme-3M, 39.4 µM (inactive); in the experiment on U-251, 41.2 µM (inactive); in the experiment with CAKI-1 it was 27.5 µM (inactive); in the experiment with NCI/ADR-RES it was 43 µM (inactive). Moreover, the GI50 was 40.6 µM (inactive) with ACHN; 38.8 µM (inactive) in the experiment with NCI-H23; 63.1 µM (inactive) with OVCAR-3; 10 µM (inactive) with MOLT-4; 19.2 µM (inactive) with HCT-116; 29.8 µM (inactive) in the experiment on SK-MEL-2. Besides, the GI50 in the experiment on IGROV-1 was 30.4 µM (inactive); with 786-0 it was 28.2 µM (inactive); in the experiment on SNB-75, 19 µM (inactive); in the experiment with SW-620, 26.3 µM (inactive); in the experiment with UACC-257, > 56.4 µM (inactive); in the experiment with MCF7, 13.4 µM (inactive). Also, the values for the GI50 in the experiment with NCI-H460 and in the experiment with NCI-H522 were 3.82 µM (inactive) and 23.7 µM (inactive), respectively.
For `O=C(O)c1cc2c(s1)C(=O)c1sccc1C2=O`, the GI50 is 4.09 µM (inactive) in the experiment on OVCAR-8; 9.91 µM (inactive) in the experiment with OVCAR-5; 0.659 µM (active) in the experiment on Malme-3M; 5.02 µM (inactive) in the experiment on U-251; 12.4 µM (inactive) in the experiment with CAKI-1; 5.4 µM (inactive) with NCI/ADR-RES. Further, the GI50 in the experiment with ACHN is 8.43 µM (inactive); in the experiment with NCI-H23 it was 2.2 µM (inactive); in the experiment with OVCAR-3, 4.81 µM (inactive); in the experiment with MOLT-4, 8.71 µM (inactive); with HCT-116, 2.22 µM (inactive); in the experiment with SK-MEL-2, 2.23 µM (inactive). The GI50 in the experiment with IGROV-1 was 17.1 µM (inactive); in the experiment on 786-0, 8.34 µM (inactive); in the experiment with SNB-75 it was 1.82 µM (inactive); with SW-620, 2.31 µM (inactive); with UACC-257, 3.51 µM (inactive); in the experiment on MCF7, 2.8 µM (inactive). The GI50 in the experiment with NCI-H460 is 17.3 µM (inactive); in the experiment on NCI-H522 it was 3.54 µM (inactive).
`CC[C@@H]1CC[C@@H]2[C@H](CC[C@]3(C)[C@@H](O)CC[C@@H]23)[C@H]1CO`: the GI50 with OVCAR-8 was > 100 µM (inactive); with OVCAR-5, > 100 µM (inactive); in the experiment with Malme-3M, > 100 µM (inactive); in the experiment on U-251, > 100 µM (inactive); in the experiment with CAKI-1 it was > 100 µM (inactive); in the experiment on NCI/ADR-RES it was 91.4 µM (inactive). For the same molecule, the GI50 in the experiment on ACHN was > 100 µM (inactive); in the experiment with NCI-H23, > 100 µM (inactive); in the experiment with OVCAR-3 it was > 100 µM (inactive); in the experiment with MOLT-4 it was 50 µM (inactive); in the experiment on HCT-116 it was 95.7 µM (inactive); in the experiment on SK-MEL-2, > 100 µM (inactive). The GI50 in the experiment on IGROV-1 was > 100 µM (inactive); with 786-0, > 100 µM (inactive); in the experiment with SNB-75, 75.9 µM (inactive); in the experiment on SW-620 it was > 100 µM (inactive); with UACC-257, > 100 µM (inactive); with MCF7, > 100 µM (inactive). In addition, the figures for the GI50 with NCI-H460 and with NCI-H522 were > 100 µM (inactive) and 44.6 µM (inactive), respectively.
